Measurements taken from BindingDB's records for doi:10.1021/cb100011u (Academia Sinica, 2010).

Tests used:
[1] = molecular target: T1, Beta-hexosaminidase subunit beta (Homo sapiens, UniProt P07686); test: Enzyme Inhibition Assay; settings: pH 4.25; 30 °C
T1 sequence (P07686 whole entry): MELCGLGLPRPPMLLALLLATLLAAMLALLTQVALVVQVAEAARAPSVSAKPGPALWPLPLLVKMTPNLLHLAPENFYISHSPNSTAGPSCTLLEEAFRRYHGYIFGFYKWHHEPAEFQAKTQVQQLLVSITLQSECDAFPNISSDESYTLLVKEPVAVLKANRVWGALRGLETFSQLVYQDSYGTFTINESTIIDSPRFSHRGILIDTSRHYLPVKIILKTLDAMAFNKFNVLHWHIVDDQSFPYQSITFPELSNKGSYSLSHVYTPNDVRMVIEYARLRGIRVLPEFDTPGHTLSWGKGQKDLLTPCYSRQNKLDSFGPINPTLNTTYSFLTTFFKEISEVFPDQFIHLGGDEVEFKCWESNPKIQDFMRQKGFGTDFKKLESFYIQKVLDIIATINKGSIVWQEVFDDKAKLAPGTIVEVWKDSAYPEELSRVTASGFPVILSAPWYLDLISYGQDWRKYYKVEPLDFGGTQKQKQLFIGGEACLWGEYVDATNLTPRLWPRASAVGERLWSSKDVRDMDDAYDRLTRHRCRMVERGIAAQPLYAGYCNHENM
Text: (§1) Enzyme inhibition activity assay using 4-methylumbelliferyl N-acetylglucosamine (MUG) as substrate.

[2] = molecular target: T2, Protein O-GlcNAcase (Homo sapiens, UniProt O60502); test: Enzyme Inhibition Assay; settings: pH 4.25; 30 °C
T2 sequence (O60502 whole entry): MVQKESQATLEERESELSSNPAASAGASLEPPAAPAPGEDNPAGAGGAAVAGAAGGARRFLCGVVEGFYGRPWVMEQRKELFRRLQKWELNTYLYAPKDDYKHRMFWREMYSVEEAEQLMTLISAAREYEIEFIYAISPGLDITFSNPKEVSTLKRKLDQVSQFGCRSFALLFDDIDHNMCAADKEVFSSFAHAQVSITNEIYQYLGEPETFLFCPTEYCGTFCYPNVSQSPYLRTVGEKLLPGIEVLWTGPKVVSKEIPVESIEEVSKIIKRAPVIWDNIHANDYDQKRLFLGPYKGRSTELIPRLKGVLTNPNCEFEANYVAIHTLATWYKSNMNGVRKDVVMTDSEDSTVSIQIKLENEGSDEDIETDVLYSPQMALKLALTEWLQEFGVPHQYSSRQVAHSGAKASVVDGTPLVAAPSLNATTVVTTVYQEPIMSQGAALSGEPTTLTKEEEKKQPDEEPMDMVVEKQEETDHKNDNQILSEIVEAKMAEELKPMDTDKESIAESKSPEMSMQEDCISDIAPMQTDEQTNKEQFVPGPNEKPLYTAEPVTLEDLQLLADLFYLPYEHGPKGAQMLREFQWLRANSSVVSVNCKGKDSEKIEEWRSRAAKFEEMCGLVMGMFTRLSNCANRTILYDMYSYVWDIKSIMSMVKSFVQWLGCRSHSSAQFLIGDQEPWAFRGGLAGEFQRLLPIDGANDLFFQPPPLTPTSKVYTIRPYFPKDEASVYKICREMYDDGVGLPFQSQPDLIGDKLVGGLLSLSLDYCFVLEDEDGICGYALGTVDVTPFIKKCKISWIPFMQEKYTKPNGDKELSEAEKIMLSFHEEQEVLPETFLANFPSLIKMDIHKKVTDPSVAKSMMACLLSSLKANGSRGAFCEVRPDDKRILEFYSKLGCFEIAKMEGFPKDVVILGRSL
Text: as §1

With `CC(=O)N[C@H]1CN[C@H](CO)[C@@H](O)[C@@H]1O` the Ki [1] was 0.54 µM and the Ki [2] was 23.6 µM.
